Results: PubChem BioAssay (NCI)
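Method: 48-hour compound exposure of cells in 96-well plates, five concentrations, linear interpolation of endpoints. TGI is the concentration that stops growth completely.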

Tests used:
Assay in all cases: NCI anticancer screen, dose series, 48 h
[1] = tested on: 786-0 renal
[2] = tested on: A498 renal
[3] = tested on: A549 NSCLC
[4] = tested on: ACHN renal
[5] = tested on: BT-549 breast
[6] = tested on: CAKI-1 renal
[7] = tested on: CCRF-CEM leukemia
[8] = tested on: COLO 205 colon
[9] = tested on: DU-145 prostate
[10] = tested on: EKVX NSCLC
[11] = tested on: HCC-2998 colon
[12] = tested on: HCT-116 colon
[13] = tested on: HCT-15 colon
[14] = tested on: HL-60(TB) leukemia
[15] = tested on: HOP-62 NSCLC
[16] = tested on: HOP-92 NSCLC
[17] = tested on: HS 578T breast
[18] = tested on: HT29 colon
[19] = tested on: IGROV1 ovarian
[20] = tested on: K-562 leukemia
[21] = tested on: KM12 colon
[22] = tested on: LOX IMVI melanoma
[23] = tested on: M14 melanoma
[24] = tested on: MALME-3M melanoma
[25] = tested on: MCF7 breast
[26] = tested on: MDA-MB-231 breast
[27] = tested on: MDA-MB-435
[28] = tested on: MDA-N
[29] = tested on: MOLT-4 leukemia
[30] = tested on: NCI-H226 lung
[31] = tested on: NCI-H23 lung
[32] = tested on: NCI-H522 lung
[33] = tested on: NCI/ADR-RES ovarian
[34] = tested on: OVCAR-3 ovarian
[35] = tested on: OVCAR-4 ovarian
[36] = tested on: OVCAR-8 ovarian
[37] = tested on: PC-3 prostate
[38] = tested on: RPMI-8226 leukemia
[39] = tested on: RXF 393 renal
[40] = tested on: SF-268 CNS
[41] = tested on: SF-295 CNS
[42] = tested on: SF-539 CNS
[43] = tested on: SK-MEL-2 melanoma
[44] = tested on: SK-MEL-28 melanoma
[45] = tested on: SK-MEL-5 melanoma
[46] = tested on: SK-OV-3 ovarian
[47] = tested on: SN12C renal
[48] = tested on: SNB-19 CNS
[49] = tested on: SNB-75 CNS
[50] = tested on: SR leukemia
[51] = tested on: SW-620 colon
[52] = tested on: T-47D breast
[53] = tested on: TK-10 renal
[54] = tested on: U251 CNS
[55] = tested on: UACC-257 melanoma
[56] = tested on: UACC-62 melanoma
[57] = tested on: UO-31 renal
[58] = tested on: NCI-H460 lung
[59] = tested on: OVCAR-5 ovarian

CCCc1[nH]nc(C(N)=O)c1N=NN(C)C
TGI [1]: > 100 µM
TGI [2]: > 100 µM
TGI [3]: > 100 µM
TGI [4]: > 100 µM
TGI [5]: > 100 µM
TGI [6]: > 100 µM
TGI [7]: > 100 µM
TGI [8]: > 100 µM
TGI [9]: > 100 µM
TGI [10]: > 100 µM
TGI [11]: > 100 µM
TGI [12]: > 100 µM
TGI [13]: > 100 µM
TGI [14]: > 100 µM
TGI [15]: > 100 µM
TGI [16]: > 100 µM
TGI [17]: > 100 µM
TGI [18]: > 100 µM
TGI [19]: > 100 µM
TGI [20]: > 100 µM
TGI [21]: > 100 µM
TGI [22]: > 100 µM
TGI [23]: > 100 µM
TGI [24]: > 100 µM
TGI [25]: 80 µM
TGI [26]: > 100 µM
TGI [27]: > 100 µM
TGI [28]: > 100 µM
TGI [29]: 49 µM
TGI [30]: > 100 µM
TGI [31]: > 100 µM
TGI [32]: 74.9 µM
TGI [33]: > 100 µM
TGI [34]: > 100 µM
TGI [35]: > 100 µM
TGI [36]: > 100 µM
TGI [37]: > 100 µM
TGI [38]: > 100 µM
TGI [39]: > 100 µM
TGI [40]: > 100 µM
TGI [41]: > 100 µM
TGI [42]: > 100 µM
TGI [43]: > 100 µM
TGI [44]: > 100 µM
TGI [45]: > 100 µM
TGI [46]: > 100 µM
TGI [47]: > 100 µM
TGI [48]: > 100 µM
TGI [49]: > 100 µM
TGI [50]: 40.6 µM
TGI [51]: > 100 µM
TGI [52]: > 100 µM
TGI [53]: > 100 µM
TGI [54]: > 100 µM
TGI [55]: > 100 µM
TGI [56]: > 100 µM
TGI [57]: > 100 µM

CN(/N=C(\C(=O)O)c1ccccc1)C1=NCCN1
TGI [1]: > 100 µM
TGI [2]: > 100 µM
TGI [3]: > 100 µM
TGI [4]: > 100 µM
TGI [5]: > 100 µM
TGI [6]: > 100 µM
TGI [7]: > 100 µM
TGI [8]: > 100 µM
TGI [9]: > 100 µM
TGI [10]: > 100 µM
TGI [11]: > 100 µM
TGI [12]: > 100 µM
TGI [13]: > 100 µM
TGI [14]: > 100 µM
TGI [15]: > 100 µM
TGI [16]: > 100 µM
TGI [17]: > 100 µM
TGI [18]: > 100 µM
TGI [19]: > 100 µM
TGI [20]: > 100 µM
TGI [21]: > 100 µM
TGI [22]: > 100 µM
TGI [24]: > 100 µM
TGI [25]: > 100 µM
TGI [26]: > 100 µM
TGI [27]: > 100 µM
TGI [28]: > 100 µM
TGI [29]: > 100 µM
TGI [30]: > 100 µM
TGI [31]: > 100 µM
TGI [58]: > 100 µM
TGI [32]: > 100 µM
TGI [33]: > 100 µM
TGI [34]: > 100 µM
TGI [35]: > 100 µM
TGI [59]: > 100 µM
TGI [36]: > 100 µM
TGI [37]: > 100 µM
TGI [38]: > 100 µM
TGI [39]: > 100 µM
TGI [40]: > 100 µM
TGI [41]: > 100 µM
TGI [42]: > 100 µM
TGI [43]: > 100 µM
TGI [44]: > 100 µM
TGI [45]: > 100 µM
TGI [46]: > 100 µM
TGI [47]: > 100 µM
TGI [49]: > 100 µM
TGI [50]: > 100 µM
TGI [51]: > 100 µM
TGI [52]: > 100 µM
TGI [53]: > 100 µM
TGI [55]: > 100 µM
TGI [56]: > 100 µM
TGI [57]: > 100 µM

COc1ccc(Oc2ccc3cc4c(cc3c2O)OCO4)c2cc(C)oc12
TGI [1]: > 100 µM
TGI [2]: > 100 µM
TGI [3]: > 100 µM
TGI [4]: > 100 µM
TGI [5]: 71.4 µM
TGI [6]: > 100 µM
TGI [7]: 89.2 µM
TGI [8]: 72.3 µM
TGI [9]: > 100 µM
TGI [10]: > 100 µM
TGI [11]: 49.8 µM
TGI [12]: > 100 µM
TGI [13]: > 100 µM
TGI [14]: 83.9 µM
TGI [15]: > 100 µM
TGI [16]: 70.1 µM
TGI [17]: > 100 µM
TGI [18]: 55.3 µM
TGI [19]: > 100 µM
TGI [20]: 81.4 µM
TGI [21]: > 100 µM
TGI [22]: 43.9 µM
TGI [23]: 78.9 µM
TGI [24]: 74.8 µM
TGI [25]: > 100 µM
TGI [26]: > 100 µM
TGI [27]: 75.1 µM
TGI [28]: > 100 µM
TGI [29]: 65.3 µM
TGI [30]: 83.8 µM
TGI [31]: > 100 µM
TGI [58]: 64.3 µM
TGI [32]: 93.7 µM
TGI [33]: 78.8 µM
TGI [34]: > 100 µM
TGI [35]: > 100 µM
TGI [59]: > 100 µM
TGI [36]: > 100 µM
TGI [37]: > 100 µM
TGI [38]: 45.2 µM
TGI [39]: 45.1 µM
TGI [40]: > 100 µM
TGI [41]: > 100 µM
TGI [42]: > 100 µM
TGI [43]: 47.4 µM
TGI [44]: > 100 µM
TGI [45]: 32.3 µM
TGI [46]: > 100 µM
TGI [47]: > 100 µM
TGI [48]: > 100 µM
TGI [49]: > 100 µM
TGI [50]: 93.3 µM
TGI [51]: > 100 µM
TGI [52]: > 100 µM
TGI [53]: 93.7 µM
TGI [55]: 61.1 µM
TGI [56]: > 100 µM
TGI [57]: > 100 µM
